Measurements reported in patent US4663329A, “Thienopyridinone derivatives and anti-bacterial compositions containing them” (Sanofi, priority 1984, dated 1987).
Where two headings read alike, the source gives them in different places.

How the values were obtained:
Assay type in all cases: cell-based
[1] = test system: Staphylococcus aureus 53154 IP; test: In vitro antibacterial activity, MIC, Staphylococcus aureus 53154 IP
Method: (§1) Tests carried out in vitro in accordance with the experimental procedure described hereunder have provided evidence of the antibacterial activity in question.
(§2) For this purpose, the M.I.C. were determined i.e. the minimal inhibiting concentrations of the compound under study acting on the growth of the bacteria at 37° C.
(§3) The serial dilutions method was used utilizing a MUELLER HINTON gelose medium at pH=7.4 and a bacterial inoculum of 10^4 units forming colonies. This inoculum was applied to the gelose by means of a multiple sowing device.
(§4) A scale of concentrations ranging from 100 to 0.05 μg/ml of compound to be studied was used starting from mother solutions titrating 1000 μg/ml, all the subsequent dilutions being effected in distilled water.

[2] = test system: Streptococcus faecalis 5855 IP; test: In vitro antibacterial activity, MIC, Streptococcus faecalis 5855 IP; conditions: Enterococcus faecalis, 37° C., pH=7.4, inoculum 10^4, read-out: MIC
Method: as §1, §2, §3, §4

[3] = test system: Bacillus subtilis ATCC 6633; test: In vitro antibacterial activity, MIC, Bacillus subtilis ATCC 6633; conditions: ATCC6633
Method: as §1, §2, §3, §4

[4] = test system: Escherichia coli 54127 IP; test: In vitro antibacterial activity, MIC, Escherichia coli 54127 IP; conditions: Escherichia coli 54127 IP; 37° C., pH=7.4, inoculum 10^4; read-out: MIC
Method: as §1, §2, §3, §4

[5] = test system: Escherichia coli SOL RL 90; test: In vitro antibacterial activity, MIC, Escherichia coli SOL RL 90; conditions: SOLRL90
Method: as §1, §2, §3, §4

[6] = test system: Citrobacter freundii GN 346; test: In vitro antibacterial activity, MIC, Citrobacter freundii GN 346; conditions: GN346
Method: as §1, §2, §3, §4

[7] = test system: Proteus vulgaris RL 99 bis; test: In vitro antibacterial activity, MIC, Proteus vulgaris RL 99 bis; conditions: RL99BIS; Proteus vulgaris RL 99 bis; 37° C., pH=7.4, inoculum 10^4; read-out: MIC
Method: as §1, §2, §3, §4

[8] = test system: Proteus mirabilis ATCC 21100; test: In vitro antibacterial activity, MIC, Proteus mirabilis ATCC 21100; conditions: ATCC21100
Method: as §1, §2, §3, §4

Proteus morganii 1510 = test: In vitro antibacterial activity, MIC, Proteus morganii 1510; conditions: Morganella morganii
Method: as §1, §2, §3, §4

[9] = test system: Providencia stuartii 5158; test: In vitro antibacterial activity, MIC, Providencia stuartii 5158
Method: as §1, §2, §3, §4

[10] = test system: Serratia liquefaciens 376; test: In vitro antibacterial activity, MIC, Serratia liquefaciens 376; conditions: 37° C., pH=7.4, inoculum 10^4, read-out: MIC
Method: as §1, §2, §3, §4

[11] = test system: Klebsiella pneumoniae ATCC 10031; test: In vitro antibacterial activity, MIC, Klebsiella pneumoniae ATCC 10031; conditions: ATCC10031; Klebsiella pneumoniae ATCC 10031; 37° C., pH=7.4, inoculum 10^4; read-out: MIC
Method: as §1, §2, §3, §4

[12] = test system: Klebsiella pneumoniae R 30; test: In vitro antibacterial activity, MIC, Klebsiella pneumoniae R 30; conditions: R30
Method: as §1, §2, §3, §4

[13] = test system: Enterobacter cloacae P 99; test: In vitro antibacterial activity, MIC, Enterobacter cloacae P 99; conditions: Enterobacter cloacae, P99
Method: as §1, §2, §3, §4

[14] = test system: Enterobacter hafniae RO 46; test: In vitro antibacterial activity, MIC, Enterobacter hafniae RO 46; conditions: Hafnia alvei, RO46
Method: as §1, §2, §3, §4

Shigella sonnei R 018 = test: In vitro antibacterial activity, MIC, Shigella sonnei R 018; conditions: R018, 37° C., pH=7.4, inoculum 10^4
Method: as §1, §2, §3, §4

[15] = test system: Salmonella typhimurium A 222 IP; test: In vitro antibacterial activity, MIC, Salmonella typhimurium A 222 IP; conditions: Salmonella enterica
Method: as §1, §2, §3, §4

[16] = test system: Salmonella typhi ATCC 6539; test: In vitro antibacterial activity, MIC, Salmonella typhi ATCC 6539; conditions: Salmonella enterica
Method: as §1, §2, §3, §4

[17] = test system: Bordetella bronchiseptica ATCC 4617; test: In vitro antibacterial activity, MIC, Bordetella bronchiseptica ATCC 4617; conditions: ATCC4617, 37° C., pH=7.4, inoculum 10^4, read-out: MIC
Method: as §1, §2, §3, §4

[18] = test system: Pseudomonas aeruginosa 8203; test: In vitro antibacterial activity, MIC, Pseudomonas aeruginosa 8203; conditions: 37° C., pH=7.4, inoculum 10^4, read-out: MIC
Method: as §1, §2, §3, §4

[19] = test system: Acinetobacter calcoaceticus C 1733; test: In vitro antibacterial activity, MIC, Acinetobacter calcoaceticus C 1733; conditions: C1733, 37° C., pH=7.4, inoculum 10^4, read-out: MIC
Method: as §1, §2, §3, §4

[20] = Bacillus subtilis ATCC 6633, 37° C., pH=7.4, inoculum 10^4, read-out: MIC
[21] = Proteus mirabilis ATCC 21100, 37° C., pH=7.4, inoculum 10^4, read-out: MIC
[22] = Staphylococcus aureus 53154 IP, 37° C., pH=7.4, inoculum 10^4, read-out: MIC
[23] = Escherichia coli SOL RL 90, 37° C., pH=7.4, inoculum 10^4, read-out: MIC
[24] = Citrobacter freundii GN 346, 37° C., pH=7.4, inoculum 10^4, read-out: MIC
[25] = Proteus morganii 1510, 37° C., pH=7.4, inoculum 10^4, read-out: MIC
[26] = Providencia stuartii 5158, 37° C., pH=7.4, inoculum 10^4, read-out: MIC
[27] = Klebsiella pneumoniae R 30, 37° C., pH=7.4, inoculum 10^4, read-out: MIC
[28] = Enterobacter hafniae RO 46, 37° C., pH=7.4, inoculum 10^4, read-out: MIC
[29] = Salmonella typhimurium A 222 IP, 37° C., pH=7.4, inoculum 10^4, read-out: MIC

Measured: MIC

CCn1cc(C(=O)O)c(=O)c2cc(C=NOC)sc21 [Compound D, 4,7-Dihydro-7-ethyl-2-methoxyiminomethyl-4-oxo-thieno[2,3-b]pyridine-5-carboxylic acid]
12.5 µg/mL: [17]
3.12 µg/mL: [5]; Escherichia coli | [6]; Citrobacter freundii | Proteus morganii 1510; 1510 | [9]; Providencia stuartii, 5158 | [12]; Klebsiella pneumoniae | [15]; TYPHIMURIUM | [16]
> 100 µg/mL: [2] | [18] | [19]
0.78 µg/mL: [3]; [20] | [4] | [7] | [8]; [21]
50 µg/mL: [10]
1.56 µg/mL: [1]; Staphylococcus aureus, 53154IP | [13] | [14] | Shigella sonnei R 018
0.2 µg/mL: [11]

CCn1cc(C(=O)O)c(=O)c2cc(C=NOCCCN(C)C)sc21 [Compound E, 4,7-Dihydro-7-ethyl-2-(3-N,N-dimethylamino-propoxy)-iminomethyl-4-oxo-thieno[2,3-b]pyridine-5-carboxylic acid]
> 100 µg/mL: [17] | [18] | [19]
25 µg/mL: [5]; [23] | Proteus morganii 1510; [25] | [9]; [26] | [12]; [27] | Shigella sonnei R 018 | [15]; [29] | [16]
100 µg/mL: [2]
50 µg/mL: [10]
12.5 µg/mL: [6]; [24] | [7] | [13]
3.12 µg/mL: [8]; [21] | [11]
6.25 µg/mL: [1]; [22] | [3]; [20] | [4] | [14]; [28]

CCn1cc(C(=O)O)c(=O)c2cc(C(=O)O)sc21 [Compound X, 4,7-dihydro-7-ethyl-2-carboxy-4-oxo-thieno[2,3-b]pyridine-5-carboxylic acid, reference compound]
> 100 µg/mL: [1]; [22] | [2] | [4] | [5]; [23] | [6]; [24] | [7] | [8]; [21] | Proteus morganii 1510; [25] | [9]; [26] | [10] | [11] | [12]; [27] | [13] | [14]; [28] | Shigella sonnei R 018 | [15]; [29] | [16] | [17] | [18] | [19]

CCn1cc(C(=O)O)c(=O)c2cc(C=Nc3ccc(OC)cc3)sc21 [Compound G, 4,7-Dihydro-7-ethyl-2-N-(4-methoxy-phenyl)-iminomethyl-4-oxo-thieno[2,3-b]pyridine-5-carboxylic acid]
3.12 µg/mL: [5]; [23] | [15]; [29]
0.78 µg/mL: Proteus morganii 1510; [25]
12.5 µg/mL: [9]; [26] | [11] | [12]; [27]
> 100 µg/mL: [1]; [22] | [2] | [17] | [18] | [19]
100 µg/mL: [10]
1.56 µg/mL: [4] | [7] | [14]; [28]
6.25 µg/mL: [3]; Bacillus subtilis | [6]; Citrobacter freundii | [8]; Proteus mirabilis | [13] | Shigella sonnei R 018 | [16]
